In brackets after ≈: the same amount, converted by molar mass.
How the values were obtained:
[1] = Volume of distribution at steady state in Beagle dog at 1 mg/kg, iv after 0.033 to 24 hrs by LC/MS/MS analysis; assay type: ADME, organism-based, Canis lupus familiaris; details: in vivo, read-out: Vdss
[2] = Cmax in Beagle dog at 5 mg/kg, po after 0.033 to 24 hrs by LC/MS/MS analysis; assay type: ADME, organism-based, Canis lupus familiaris; design: dose 5 mg/kg, route oral; details: in vivo
[3] = system: Rattus norvegicus; assay: Toxicity in rat assessed as CNS side effects up to 1000 mg/kg, po administered on day 1 followed by necropsy on day 2; assay type: organism-based; details: in vivo
[4] = Tmax in Beagle dog at 5 mg/kg, po after 0.033 to 24 hrs by LC/MS/MS analysis; assay type: ADME, organism-based, Canis lupus familiaris; details: in vivo
[5] = Protein binding in human plasma at 1 uM after 6 hrs by LC/MS/MS based equilibrium dialysis method; assay type: ADME, cell-free; details: read-out: PPB (converted)
[6] = Brain tissue binding in rat brain homogenate at 5 uM after 5 hrs by LC/MS/MS analysis; details: in vitro
[7] = Drug metabolism in human liver microsomes assessed as oxidation of fluoropyridine substituent at 10 uM after 60 mins by LC/MS/MS analysis; assay type: ADME; details: 1 h
[8] = Protein binding in rat plasma at 1 uM after 6 hrs by LC/MS/MS based equilibrium dialysis method; assay type: ADME, cell-free; details: read-out: PPB (converted)
[9] = Protein binding in mouse plasma at 1 uM after 6 hrs by LC/MS/MS analysis; assay type: ADME, cell-free; details: read-out: PPB (converted)
[10] = system: Rattus norvegicus; assay: Toxicity in rat assessed as CNS side effects up to 250 mg/kg, po for 4 days followed by necropsy on day 5 post treatment; assay type: organism-based; details: in vivo, 96 h
[11] = molecular target: CYP3A4 (Homo sapiens, UniProt P08684); assay: Inhibition of CYP3A4 in human liver microsomes using midazolam as substrate assessed as reduction in 1-OH-midazolam formation at 5 uM by LC/MS/MS analysis; assay type: ADME; details: probe midazolam
[12] = system: Rattus norvegicus; assay: Ex vivo receptor occupancy at P2X7 receptor in po dosed rat brain hippocampal tissue assessed as brain concentration required for [3H]-(S)-7-(2-chloro-3-(trifluoromethyl)benzyl)-6-methyl-3-(pyrazin-2-yl)-6,7-dihydro-[1,2,4]triazolo[4,3-a]pyrazin-8(5H)-one displacement after 30 mins; assay type: functional, organism-based
[13] = Solubility of the compound in phosphate buffer at pH 7 at room temperature after 3 days
[14] = Clearance in cynomolgus monkey at 1 mg/kg, iv after 0.033 to 24 hrs by LC/MS/MS analysis; assay type: ADME, organism-based, Macaca fascicularis; details: in vivo
[15] = Volume of distribution at steady state in Sprague-Dawley rat at 1 mg/kg, iv after 0.033 to 24 hrs by LC/MS/MS analysis; assay type: ADME, organism-based; details: in vivo, read-out: Vdss

Chain of CYP3A4 (P08684 whole entry): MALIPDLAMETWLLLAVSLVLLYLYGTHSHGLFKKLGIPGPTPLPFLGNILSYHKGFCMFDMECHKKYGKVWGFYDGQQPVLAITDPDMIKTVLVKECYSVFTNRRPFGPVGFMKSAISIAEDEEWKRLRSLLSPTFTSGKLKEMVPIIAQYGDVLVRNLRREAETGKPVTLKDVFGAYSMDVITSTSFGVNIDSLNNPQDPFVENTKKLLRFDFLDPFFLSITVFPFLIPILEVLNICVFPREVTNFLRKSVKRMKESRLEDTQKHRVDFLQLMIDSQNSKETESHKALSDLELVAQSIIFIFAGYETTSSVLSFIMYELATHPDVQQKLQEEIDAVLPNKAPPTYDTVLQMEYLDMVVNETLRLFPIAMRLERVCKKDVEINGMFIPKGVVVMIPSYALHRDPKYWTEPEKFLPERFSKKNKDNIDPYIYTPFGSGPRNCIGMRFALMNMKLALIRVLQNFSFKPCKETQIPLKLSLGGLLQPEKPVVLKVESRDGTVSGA

C[C@@H]1c2ncn(-c3ccc(F)cn3)c2CCN1C(=O)c1cccc(C(F)(F)F)c1Cl
Vd [1]: 3.6 L/kg | Cmax [2]: 1250 ng/mL | Activity [3]: Non-Toxic | Tmax [4]: 30 min | fraction unbound at 6 h, 1 µM [5]: 0.055 | Brain tissue binding [6]: 98.5% | Drug metabolism [7]: Metabolite_Notdetected | fraction unbound at 6 h, 1 µM [8]: 0.051 | fraction unbound at 6 h, 1 µM [9]: 0.045 | Activity [10]: Non-Toxic | inhibition at 5 µM [11]: 63% | fIC50 [12]: 12 nM | EC50 ([12]; Rattus norvegicus, P2X7): 0.362 µg/mL (≈ 0.825 µM) | solubility at 72 h [13]: 29 µM (≈ 12.7 µg/mL) | clearance [14]: 14 mL/min/kg | Vd [15]: 3.8 L/kg

From ChEMBL document CHEMBL3856233, “Identification of (R)-(2-Chloro-3-(trifluoromethyl)phenyl)(1-(5-fluoropyridin-2-yl)-4-methyl-6,7-dihydro-1H-imidazo[4,5-c]pyridin-5(4H)-yl)methanone (JNJ 54166060), a Small Molecule Antagonist of the P2X7 receptor” (J Med Chem, 2016)
